Our source for the IC50, Kd and Ki values is patent US9181185B2, “Heteroaryl compounds as sodium channel blockers” (Purdue Pharma L.P., priority 2011, dated 2015).

Read-outs that look alike come from different tables or passages of the source.

In one experiment the target is human Nav1.7 (Homo sapiens (Human), UniProt Q15858). Put plainly: FLIPR or FLIPR TETRA sodium dye assay with KCl and test article pre-incubation. It counts as cell-based.
Another experiment addresses hNav1.7 (Homo sapiens (Human), UniProt Q15858). Put plainly: Electrophysiology (EP) assay, whole-cell patch clamp. Format: cell-based. The note with it: hNav1.7 HEK-293 cells; for Kd: Kf (method describes resting block dissociation constant Kr), read-out: EP Nav 1.7 Kf (μM) ± SEM; for Ki: affinity for inactivated state, read-out: EP Nav 1.7 Ki (μM) ± SEM. The procedure:
Cells: The hNav1.7 expressing HEK-293 cells were plated on 35 mm culture dishes pre-coated with poly-D-lysine in standard DMEM culture media (Mediatech, Inc., Herndon, Va.) and incubated in a 5% CO2 incubator at 37° C. Cultured cells were used approximately 12-48 hours after plating.
Electrophysiology: On the day of experimentation, the 35 mm dish was placed on the stage of an inverted microscope equipped with a perfusion system that continuously perfuses the culture dish with fresh recording media. A gravity driven superfusion system was used to apply test solutions directly to the cell under evaluation. This system consists of an array of glass pipette glass connected to a motorized horizontal translator. The outlet of the shooter was positioned approximately 100 μm from the cell of interest.
Whole cell currents were recorded using the whole-cell patch clamp configuration using an Axopatch 200B amplifier (Axon Instruments, Foster City Calif.), 1322A A/D converter (Axon Instruments) and pClamp software (v. 8; Axon Instruments) and stored on a personal computer. Gigaseals were formed and the whole-cell configuration was established in voltage clamp mode, and membrane currents generated by hNav1.7 were recorded in gap-free mode. Borosilicate glass pipettes have resistance values between 1.5 and 2.0 MΩ when filled with pipette solution and series resistance (<5 MΩ) was compensated 75-80%. Signals were sampled at 50 kHz and low pass filtered at 3 kHz.
Voltage Protocols: After establishing the whole-cell configuration in voltage clamp mode, voltage protocols were run to establish the 1) test potential, 2) holding potential, and 3) the conditioning potential for each cell.
After establishing the whole-cell configuration in voltage clamp mode, a standard I-V protocol was run to determine the potential at which the maximal current (Imax) is elicited. This potential was the test potential (Vt). To determine a conditioning potential at which 100% of channels were in the inactivated state, a standard steady-state inactivation (SSIN) protocol was run using a series of fifteen 100 ms-long depolarizing prepulses, incrementing in 10 mV steps, immediately followed by a 5 ms testing pulse, Vt, to Vmax. This protocol also permitted determination of the holding potential at which all channels are in the resting state.
For compounds causing significant retardation of recovery from inactivation, an estimate of the affinity for the inactivated state of the channel (Ki) was generated using the following protocol. From the negative, no residual inactivation, holding potential, the cell was depolarized to the conditioning voltage for 2-5 seconds, returned to the negative holding potential for 10-20 ms to relieve fast inactivation and then depolarized to the test potential for ˜15 ms. This voltage protocol was repeated every 10-15 seconds, first to establish a baseline in the absence of the test compound, then in the presence of the test compound.
After a stable baseline was established, the test compound was applied and block of the current elicited by the test pulse assessed. In some cases, multiple cumulative concentrations were applied to identify a concentration that blocked between 40-60% of this current. Washout of the compound was attempted by superfusing with control solution once steady-state block was observed. An estimate of the Ki was calculated as follows: Ki=[drug]*{FR/(1−FR)}, Eq. 1 where [drug] is the concentration of a drug, and FR=I(after drug)/l(control), Eq. 2 where I is the peak current amplitude. If multiple concentrations were used, Ki was determined from the fit of a logistic equation to FRs plotted against corresponding drug concentrations.
In the alternative, the voltage clamp protocol to examine hNav1.7 currents was as follows. […]
For orientation: In patch-clamp work, channel activity is measured electrically.

The mark [1] stands for this setting: read-out: FLIPR Nav 1.7 IC50 (μM) ± SEM.
Where [2] appears, read: recombinant HEK293 cells expressing human Nav1.7, CoroNa Green sodium dye, veratridine + scorpion venom, read-out: FLIPR Nav 1.7 IC50 (μM) ± SEM.

Sequence of human Nav1.7 (Q15858 other isoform, or with tags, fused parts or gaps): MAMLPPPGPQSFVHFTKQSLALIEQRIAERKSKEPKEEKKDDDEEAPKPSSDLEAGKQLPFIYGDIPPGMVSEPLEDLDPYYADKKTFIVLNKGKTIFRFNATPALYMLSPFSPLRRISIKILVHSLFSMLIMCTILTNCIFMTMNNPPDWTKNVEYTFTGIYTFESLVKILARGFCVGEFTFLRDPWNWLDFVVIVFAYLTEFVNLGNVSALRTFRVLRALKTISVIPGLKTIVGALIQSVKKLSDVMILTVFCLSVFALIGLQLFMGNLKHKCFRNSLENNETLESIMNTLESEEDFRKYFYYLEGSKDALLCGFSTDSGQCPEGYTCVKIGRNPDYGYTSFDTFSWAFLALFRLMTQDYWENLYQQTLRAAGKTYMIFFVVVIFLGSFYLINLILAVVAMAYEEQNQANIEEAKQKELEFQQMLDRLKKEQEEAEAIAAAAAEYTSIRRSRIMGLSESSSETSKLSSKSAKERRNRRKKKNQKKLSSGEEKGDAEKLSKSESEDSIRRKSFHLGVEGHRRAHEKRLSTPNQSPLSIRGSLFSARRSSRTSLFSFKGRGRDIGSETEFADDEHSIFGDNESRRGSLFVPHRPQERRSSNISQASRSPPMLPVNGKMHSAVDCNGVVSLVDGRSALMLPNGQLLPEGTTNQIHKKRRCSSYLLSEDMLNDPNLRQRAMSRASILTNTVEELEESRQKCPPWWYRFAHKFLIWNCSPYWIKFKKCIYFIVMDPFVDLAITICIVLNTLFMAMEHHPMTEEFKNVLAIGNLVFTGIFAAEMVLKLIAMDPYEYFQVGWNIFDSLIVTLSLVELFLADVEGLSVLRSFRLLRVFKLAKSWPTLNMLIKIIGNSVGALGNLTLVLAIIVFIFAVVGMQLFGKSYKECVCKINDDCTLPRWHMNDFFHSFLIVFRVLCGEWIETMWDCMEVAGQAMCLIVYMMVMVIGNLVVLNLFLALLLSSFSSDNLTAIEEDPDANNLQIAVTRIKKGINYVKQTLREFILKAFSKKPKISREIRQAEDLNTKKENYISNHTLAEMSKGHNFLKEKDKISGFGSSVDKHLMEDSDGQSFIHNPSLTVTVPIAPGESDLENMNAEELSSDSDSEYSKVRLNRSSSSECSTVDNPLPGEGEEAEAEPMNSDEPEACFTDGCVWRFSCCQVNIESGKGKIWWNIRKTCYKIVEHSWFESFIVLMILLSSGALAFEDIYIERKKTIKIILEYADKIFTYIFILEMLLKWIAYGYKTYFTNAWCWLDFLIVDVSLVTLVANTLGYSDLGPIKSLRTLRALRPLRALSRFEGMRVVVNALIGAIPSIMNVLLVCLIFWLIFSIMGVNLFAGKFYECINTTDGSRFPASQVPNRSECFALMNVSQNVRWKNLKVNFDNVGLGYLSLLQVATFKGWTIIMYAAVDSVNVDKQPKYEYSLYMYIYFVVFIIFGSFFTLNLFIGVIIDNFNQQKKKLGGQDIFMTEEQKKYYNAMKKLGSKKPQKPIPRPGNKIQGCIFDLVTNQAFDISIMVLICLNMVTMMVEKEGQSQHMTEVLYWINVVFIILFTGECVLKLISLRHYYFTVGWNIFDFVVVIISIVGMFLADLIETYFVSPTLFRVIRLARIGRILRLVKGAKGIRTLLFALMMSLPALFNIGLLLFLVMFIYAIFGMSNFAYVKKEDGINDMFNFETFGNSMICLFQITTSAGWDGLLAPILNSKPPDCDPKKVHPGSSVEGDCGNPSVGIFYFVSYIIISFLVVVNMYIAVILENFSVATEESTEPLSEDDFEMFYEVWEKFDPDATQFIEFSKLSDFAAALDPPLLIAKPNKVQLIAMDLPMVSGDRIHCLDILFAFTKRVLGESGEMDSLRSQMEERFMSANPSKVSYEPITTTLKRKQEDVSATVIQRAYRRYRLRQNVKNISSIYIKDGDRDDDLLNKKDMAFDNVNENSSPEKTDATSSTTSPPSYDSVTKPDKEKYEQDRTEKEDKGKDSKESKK
Sequence of hNav1.7 (Q15858 other isoform, or with tags, fused parts or gaps): as above

Consider `NC(=O)[C@H](O)[C@@H](O)c1cccc(-c2ccc(Oc3ccc(Cl)cn3)cc2)n1`, for which the IC50 on human Nav1.7 (setting [1]) amounted to 1.44 ± 0.078 µM.
At human Nav1.7, `CCOC(=O)[C@@H](O)[C@H](O)c1cccc(-c2ccc(Oc3ccc(C(F)(F)F)c(C#N)c3)cc2)n1` [Compound 14, (2S,3R)-Ethyl 3-(6-(4-(3-cyano-4-(trifluoromethyl)phenoxy)phenyl)pyridin-2-yl)-2,3-dihydroxypropanoate] showed an IC50 of 0.246 ± 0.031 µM.
With `N#Cc1ccc(Oc2ccc(-c3cccc([C@H](O)[C@@H](O)C(N)=O)n3)cc2)cc1`, on human Nav1.7 (setting [2]), the IC50 was 0.69 ± 0.071 µM.
For the compound `NC(=O)[C@H](O)[C@@H](O)c1cccc(-c2ccc(Oc3ccc(F)cc3)cc2)n1`, the IC50 on human Nav1.7 (setting [1]) amounted to 1.84 ± 0.309 µM.
For `NC(=O)[C@H](O)[C@@H](O)c1cccc(-c2ccc(Oc3ccc(Cl)nc3)cc2)n1`, the half-inhibitory concentration (IC50) on human Nav1.7 (setting [2]) was determined as 0.804 ± 0.044 µM.
In the case of `NC(=O)[C@H](O)[C@@H](O)c1ccnc(-c2ccc(Oc3ccc(F)cc3)cc2)n1` [Compound 26, (2R,3S)-3-(2-(4-(4-fluorophenoxy)phenyl)pyrimidin-4-yl)-2,3-dihydroxypropanamide], at hNav1.7, the Kd is 97.9 ± 23.1 µM and the Ki is 2.26 ± 0.61 µM. For the same compound, the IC50 at human Nav1.7 (setting [2]) was 0.625 ± 0.058 µM.
`CCOC(=O)[C@@H](O)[C@H](O)c1cn(-c2ccc(Oc3ccc(C(F)(F)F)cn3)cc2)c2ccccc12` [Compound 6, (2S,3R)-Ethyl 2,3-dihydroxy-3-(1-(4-((5-(trifluoromethyl)pyridin-2-yl)oxy)phenyl)-1H-indol-3-yl)propanoate]: the IC50 at human Nav1.7 (setting [2]) was determined as 0.152 ± 0.031 µM.
Turning to `N#Cc1cc(Oc2ccc(-c3cccc([C@H](O)[C@@H](O)C(N)=O)n3)cc2)ccc1C(F)(F)F` [Compound 19, (2R,3S)-3-(6-(4-(3-Cyano-4-(trifluoromethyl)phenoxy)phenyl)pyridin-2-yl)-2,3-dihydroxypropanamide], on hNav1.7, the Kd turned out to be 17.1 ± 4.24 µM and the Ki was found to be 0.347 ± 0.07 µM. Besides, the IC50 on human Nav1.7 (setting [1]) was found to be 0.244 ± 0.05 µM.
As to `NC(=O)[C@@H](O)[C@H](O)c1cn(-c2ccc(Oc3ccc(C(F)(F)F)cn3)cc2)c2ccccc12` [Compound 8, (2S,3R)-2,3-Dihydroxy-3-(1-(4-((5-(trifluoromethyl)pyridin-2-yl)oxy)phenyl)-1H-indol-3-yl)propanamide], the IC50 at human Nav1.7 (setting [1]) came to 0.193 ± 0.049 µM.
In the case of `N#Cc1ccc(Oc2ccc(-c3cccc([C@@H](O)[C@H](O)C(N)=O)n3)cc2)cc1`, the IC50 on human Nav1.7 (setting [2]) was determined as 0.262 ± 0.017 µM.
As for `NC(=O)[C@@H](O)[C@H](O)c1cccc(-c2ccc(Oc3ccc(F)cc3)cc2)n1`, the IC50 at human Nav1.7 (setting [1]) amounted to 1.41 ± 0.281 µM.
For `N#Cc1ccc(Oc2ccc(-c3cccc([C@H](O)[C@@H](O)C(N)=O)n3)cc2)cc1C(F)(F)F`, the IC50 on human Nav1.7 (setting [2]) turned out to be 0.489 ± 0.04 µM.
Same read-out and setting: in the case of `NC(=O)[C@@H](O)[C@H](O)c1cccc(-c2ccc(Oc3ccc(C(F)(F)F)cn3)cc2)n1` it was 0.711 ± 0.05 µM.
Regarding `N#Cc1cc(Oc2ccc(-c3cccc([C@@H](O)[C@H](O)C(N)=O)n3)cc2)ccc1C(F)(F)F` [Compound 15, (2S,3R)-3-(6-(4-(3-Cyano-4-(trifluoromethyl)phenoxy)phenyl)pyridin-2-yl)-2,3-dihydroxypropanamide], on hNav1.7, the Kd came to 32.9 ± 6.89 µM and the Ki was 0.917 ± 0.05 µM. Further, at human Nav1.7 (setting [1]), the IC50 was 0.304 ± 0.022 µM.
Consider `NC(=O)[C@H](O)[C@@H](O)c1cccc(-c2ccc(Oc3ccc(C(F)(F)F)cn3)cc2)n1`, for which, at human Nav1.7 (setting [2]), the IC50 was determined as 1.69 ± 0.019 µM.
Same read-out and setting: as for `N#Cc1ccc(Oc2ccc(-c3cccc([C@@H](O)[C@H](O)C(N)=O)n3)cc2)cc1C(F)(F)F`, the figure is 0.461 ± 0.045 µM; as for `NC(=O)[C@@H](O)[C@H](O)c1cccc(-c2ccc(Oc3ccc(Cl)nc3)cc2)n1`, 0.376 ± 0.057 µM.
Regarding `NC(=O)[C@@H](O)[C@H](O)c1cccc(-c2ccc(Oc3ccc(Cl)cn3)cc2)n1`, at human Nav1.7 (setting [1]), the IC50 is 1.19 ± 0.074 µM.
In the case of `NC(=O)[C@@H](O)[C@H](O)c1cccc(-c2ccc(Oc3ccc(C(F)(F)F)cc3)cc2)n1`, the IC50 at human Nav1.7 (setting [2]) is 0.13 ± 0.025 µM.
Still for that read-out and setting: in the case of `NC(=O)[C@H](O)[C@@H](O)c1cccc(-c2ccc(Oc3ccc(C(F)(F)F)cc3)cc2)n1` it was 0.383 ± 0.072 µM.
Regarding `NC(=O)[C@H](O)[C@@H](O)c1cn(-c2ccc(Oc3ccc(C(F)(F)F)cn3)cc2)c2ccccc12` [Compound 5, (2R,3S)-2,3-Dihydroxy-3-(1-(4-((5-(trifluoromethyl)pyridin-2-yl)oxy)phenyl)-1H-indol-3-yl)propanamide], at human Nav1.7 (setting [1]), the IC50 turned out to be 0.314 ± 0.038 µM.
Turning to `CNC(=O)[C@@H](O)[C@H](O)c1cn(-c2ccc(Oc3ccc(C(F)(F)F)cn3)cc2)c2ccccc12` [Compound 7, (2S,3R)-2,3-Dihydroxy-N-methyl-3-(1-(4-((5-(trifluoromethyl)pyridin-2-yl)oxy)phenyl)-1H-indol-3-yl)propanamide], at human Nav1.7 (setting [2]), the IC50 stood at 0.282 ± 0.002 µM.

As a reminder, the IC50 is the concentration needed to halve the response being measured.
